# Measurements as given in patent US20110152093A1, “Herbicidal compositions comprising flufenacet” (Bayer CropScience AG, priority 2009, published 2011).
# Legend:
# Assay type in all cases: in vivo
# [1] = system: POAAN (Poa annua); assay: Post-emergence (PO) action against weeds, greenhouse trial, test method 2; conditions: PO application; g of AS/ha: (A) 240, (B) 1200, (C) 140, (A)+(B)+(C) 240 + 1200 + 140
# Description: (§1) In the standard design of the test, seeds of various broad-leaved weed and weed grass biotypes (origins) were sown in a 8-13 cm diameter pot filled with natural soil of a standard field soil (loamy silt; non-sterile) and covered with a covering soil layer of about 1 cm. The pots were then cultivated in a greenhouse (12-16 h of light, temperature day 20-22° C., night 15-18° C.) until the time of application. The pots were treated on a laboratory track sprayer with spray liquors comprising the compositions according to the invention, mixtures of the prior art or components used individually. Application of the active compounds or active compound combinations formulated as WG, WP, EC or otherwise was carried out at the appropriate growth stages of the plants. The application rate for the spray application was 100-600 l of water/ha. After the treatment, the plants were returned to the greenhouses.
# (§2) About 3 weeks after the application, the soil action or/and foliar action was assessed visually according to a scale of 0-100% in comparison to an untreated comparative group: 0%=no noticeable effect compared to the untreated comparative group; 100%=full effect compared to the untreated comparative group.
# (§3) (notes: the term “seeds” also includes vegetative propagation forms such as, for example, rhizome pieces; abbreviations used: h light=hours of illumination, g of AS/ha=gram of active substance per hectare, l/ha=liter per hectare, S=sensitive, R=resistant) • 1. Pre-emergence action against weeds: seeds of various broad-leaved weed and weed grass biotypes (origins) were sown in a 8-13 cm diameter pot filled with natural soil of a standard field soil (loamy silt; non-sterile) and covered with a covering soil layer of about 1 cm. The pots were then cultivated in a greenhouse (12-16 h of light, temperature day 20-22° C., night 15-18° C.) until the time of application. The pots were treated at the BBCH stage 00-10 of the seeds/plants on a laboratory track sprayer with spray liquors comprising the compositions according to the invention, mixtures or components used individually, as WG, WP, EC or other formulations. The application rate for the spray application was 100-600 l of water/ha. After the treatment, the plants were returned to the greenhouses and, when required, treated with fertilizer and watered. • 2. Post-emergence action against weeds: seeds of various broad-leaved weed and weed grass biotypes (origins) were sown in a 8-13 cm diameter pot filled with natural soil of a standard field soil (loamy silt; non-sterile) and covered with a covering soil layer of about 1 cm. The pots were then cultivated in a greenhouse (12-16 h of light, temperature day 20-22° C., night 15-18° C.) until the time of application. The pots were treated at various BBCH stages between 11-25 of the seeds/plants, i.e. generally between two to three weeks after the start of the cultivation, on a laboratory track sprayer with spray liquors comprising the compositions according to the invention, mixtures or components used individually, as WG, WP, EC or other formulations. The application rate for the spray application was 100-600 l of water/ha. After the treatment, the plants were returned to the greenhouses and, when required, treated with fertilizer and watered. • 3. […]
# [2] = system: VIOAR (Viola arvensis); assay: as above; conditions: PO application; g of AS/ha: (A) 240, (B) 1200, (C) 140, (A)+(B)+(C) 240 + 1200 + 140
# Description: as §1, §2, §3
# [3] = system: HORVS (Hordeum vulgare, summer barley); assay: Action under various soil conditions (soil types), test method 7, crop compatibility; conditions: g of AS/ha: (A) 90, (B) 1200, (C) 140, (A)+(B)+(C) 90 + 1200 + 140
# Description: as §1, §2, §3
# [4] = system: STEME (Stellaria media); assay: Action under various soil conditions (soil types), test method 7; conditions: IU/EC73 soil versus IU soil; g of AS/ha: (A) 90, (B) 1200, (C) 140, (A)+(B)+(C) 90 + 1200 + 140
# Description: as §1, §2
# (§4) (notes: the term “seeds” also includes vegetative propagation forms such as, for example, rhizome pieces; abbreviations used: h light=hours of illumination, g of AS/ha=gram of active substance per hectare, l/ha=liter per hectare, S=sensitive, R=resistant) • 1. Pre-emergence action against weeds: seeds of various broad-leaved weed and weed grass biotypes (origins) were sown in a 8-13 cm diameter pot filled with natural soil of a standard field soil (loamy silt; non-sterile) and covered with a covering soil layer of about 1 cm. The pots were then cultivated in a greenhouse (12-16 h of light, temperature day 20-22° C., night 15-18° C.) until the time of application. The pots were treated at the BBCH stage 00-10 of the seeds/plants on a laboratory track sprayer with spray liquors comprising the compositions according to the invention, mixtures or components used individually, as WG, WP, EC or other formulations. The application rate for the spray application was 100-600 l of water/ha. After the treatment, the plants were returned to the greenhouses and, when required, treated with fertilizer and watered. • 2. Post-emergence action against weeds: seeds of various broad-leaved weed and weed grass biotypes (origins) were sown in a 8-13 cm diameter pot filled with natural soil of a standard field soil (loamy silt; non-sterile) and covered with a covering soil layer of about 1 cm. The pots were then cultivated in a greenhouse (12-16 h of light, temperature day 20-22° C., night 15-18° C.) until the time of application. The pots were treated at various BBCH stages between 11-25 of the seeds/plants, i.e. generally between two to three weeks after the start of the cultivation, on a laboratory track sprayer with spray liquors comprising the compositions according to the invention, mixtures or components used individually, as WG, WP, EC or other formulations. The application rate for the spray application was 100-600 l of water/ha. After the treatment, the plants were returned to the greenhouses and, when required, treated with fertilizer and watered. • 3. Selective pre-emergence action: seeds of various crop species (origins) were sown in a 8-13 cm diameter pot filled with natural soil of a standard field soil (loamy silt; non-sterile) and covered with a covering soil layer of about 1 cm. The pots were then cultivated in a greenhouse (12-16 h of light, temperature day 20-22° C., night 15-18° C.) until the time of application. The pots were treated at the BBCH stage 00-10 of the seeds/plants on a laboratory track sprayer with spray liquors comprising the compositions according to the invention, mixtures or components used individually, as WG, WP, EC or other formulations. The application rate for the spray application was 100-600 l of water/ha. […]
# [5] = system: MATCH (Matricaria chamomilla); assay: as above; conditions: g of AS/ha: (A) 90, (B) 1200, (C) 140, (A)+(B)+(C) 90 + 1200 + 140
# Description: as §1, §2, §4
# [6] = system: AVEFA (Avena fatua); assay: PE action at different soil pH values, test method 10; conditions: PE application, g of AS/ha: (A) 90, (B) 1200, (C) 140, (A)+(B)+(C) 90 + 1200 + 140
# Description: as §1, §2
# [7] = system: LOLPE (Lolium perenne); assay: Pre-sowing application action against weeds (7 days prior to sowing), test method 5; conditions: application 7 days prior to sowing; g of AS/ha: (A) 90, (B) 1200, (C) 140, (A)+(B)+(C) 90 + 1200 + 140
# Description: as §1, §2
# (notes: the term “seeds” also includes vegetative propagation forms such as, for example, rhizome pieces; abbreviations used: h light=hours of illumination, g of AS/ha=gram of active substance per hectare, l/ha=liter per hectare, S=sensitive, R=resistant) • 1. Pre-emergence action against weeds: seeds of various broad-leaved weed and weed grass biotypes (origins) were sown in a 8-13 cm diameter pot filled with natural soil of a standard field soil (loamy silt; non-sterile) and covered with a covering soil layer of about 1 cm. The pots were then cultivated in a greenhouse (12-16 h of light, temperature day 20-22° C., night 15-18° C.) until the time of application. The pots were treated at the BBCH stage 00-10 of the seeds/plants on a laboratory track sprayer with spray liquors comprising the compositions according to the invention, mixtures or components used individually, as WG, WP, EC or other formulations. The application rate for the spray application was 100-600 l of water/ha. After the treatment, the plants were returned to the greenhouses and, when required, treated with fertilizer and watered. • 2. Post-emergence action against weeds: seeds of various broad-leaved weed and weed grass biotypes (origins) were sown in a 8-13 cm diameter pot filled with natural soil of a standard field soil (loamy silt; non-sterile) and covered with a covering soil layer of about 1 cm. The pots were then cultivated in a greenhouse (12-16 h of light, temperature day 20-22° C., night 15-18° C.) until the time of application. […]
# [8] = system: HORVS (Hordeum vulgare, summer barley); assay: Selective post-emergence action (crop compatibility), greenhouse trial, test method 4; conditions: PO application; g of AS/ha: (A) 240, (B) 1200, (C) 140, (A)+(B)+(C) 240 + 1200 + 140
# Description: as §1, §2
# (notes: the term “seeds” also includes vegetative propagation forms such as, for example, rhizome pieces; abbreviations used: h light=hours of illumination, g of AS/ha=gram of active substance per hectare, l/ha=liter per hectare, S=sensitive, R=resistant) • 1. Pre-emergence action against weeds: seeds of various broad-leaved weed and weed grass biotypes (origins) were sown in a 8-13 cm diameter pot filled with natural soil of a standard field soil (loamy silt; non-sterile) and covered with a covering soil layer of about 1 cm. The pots were then cultivated in a greenhouse (12-16 h of light, temperature day 20-22° C., night 15-18° C.) until the time of application. […]
# [9] = system: MATCH (Matricaria chamomilla); assay: PE action under various irrigation conditions, test method 6; conditions: PE application; irrigation from below; g of AS/ha: (A) 90, (B) 1200, (C) 140, (A)+(B)+(C) 90 + 1200 + 140
# Description: as §1, §2, §4
# [10] = system: LOLPE (Lolium perenne); assay: as above; conditions: PE application, g of AS/ha: (A) 90, (B) 1200, (C) 140, (A)+(B)+(C) 90 + 1200 + 140
# Description: as §1, §2, §4
# [11] = system: ALOMY resistant (Alopecurus myosuroides); assay: PE action on resistant weed biotypes, test method 8; conditions: PE application; g of AS/ha: (A) 90, (B) 1200, (C) 140, (A)+(B)+(C) 90 + 1200 + 140, iodosulfuron 10
# Description: as §1, §2, §4
# [12] = system: ALOMY sensitive (Alopecurus myosuroides); assay: as above; conditions: PE application; g of AS/ha: (A) 90, (B) 1200, (C) 140, (A)+(B)+(C) 90 + 1200 + 140, iodosulfuron 10
# Description: as §1, §2, §4
smiles,measurement,setting,value
"CSc1nnc(C(C)(C)C)c(=O)n1N [(C) metribuzin, 4-amino-6-(1,1-dimethylethyl)-3-(methylthio)-1,2,4-triazin-5(4H)-one]","activity POAAN (visual, scale 0-100%)",[1],79%
same,"activity VIOAR (visual, scale 0-100%)",[2],90%
same,activity HORVS IU soil (crop plant),[3]; IU soil,20%
same,"Difference of the soil types, HORVS",[3]; IU/EC73 soil versus IU soil,−20%
same,"Difference of the soil types, STEME",[4],−70%
same,activity MATCH IU soil,[5]; IU soil,0%
same,"Difference of the soil types, MATCH",[5]; IU/EC73 soil versus IU soil,+15%
same,activity MATCH IU/EC73 soil,[5]; IU/EC73 soil,15%
same,activity AVEFA pH 7.4,[6]; soil pH 7.4,90%
same,activity AVEFA pH 8.4,[6]; soil pH 8.4,90%
same,activity LOLPE,[7],100%
same,"activity HORVS (crop plant; visual, scale 0-100%)",[8],70%
same,activity MATCH,[9],60%
same,activity LOLPE,[10]; irrigation from above,55%
same,activity LOLPE,[10]; irrigation from below,48%
same,activity ALOMY resistant,[11],80%
same,activity ALOMY sensitive,[12],85%
